Measurements as given in patent US12139487B2, “Compounds and uses thereof” (Foghorn Therapeutics Inc., priority 2022, dated 2024).

Columns and labels:
[1] = biological target: T1, BRG-1 (Homo sapiens, UniProt P51532); assay: ATPase catalytic activity assay (ADP-Glo), BRG-1; format: biochemical; details: Table 10, read-out: BRG1 IC50
T1 construct: made in house; host or cells: High Five insect cells
Procedure, shortened: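 Luminescence read-out: ADP formed by BRG-1 ATPase is converted to ATP and detected by luciferase. Residual ATP is first removed with ADP-Glo Reagent for 40 min at RT; detection reagent is then incubated 60 min at RT before reading.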

[2] = biological target: T2, BRM (Homo sapiens, UniProt P51531); assay: ATPase catalytic activity assay (ADP-Glo), BRM; format: biochemical; details: Table 10; for Ratio (BRG1 IC50 (μM) divided by BRM IC50 (μM)): ATPase assay, selectivity BRG1/BRM; for IC50: ATPase catalytic activity assay (ADP-Glo)
T2 construct: made in house; host or cells: High Five insect cells
Procedure, shortened: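 ADP-Glo luminescence measures ADP produced by BRM ATPase (30 nM) during 1 h at room temperature. ATP is 400 μM, with 20 nM salmon sperm DNA as cofactor. Buffer: 20 mM Tris pH 8, 20 mM MgCl2, 50 mM NaCl, 0.1% Tween-20, 1 mM DTT.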

T2 sequence (P51531 whole entry): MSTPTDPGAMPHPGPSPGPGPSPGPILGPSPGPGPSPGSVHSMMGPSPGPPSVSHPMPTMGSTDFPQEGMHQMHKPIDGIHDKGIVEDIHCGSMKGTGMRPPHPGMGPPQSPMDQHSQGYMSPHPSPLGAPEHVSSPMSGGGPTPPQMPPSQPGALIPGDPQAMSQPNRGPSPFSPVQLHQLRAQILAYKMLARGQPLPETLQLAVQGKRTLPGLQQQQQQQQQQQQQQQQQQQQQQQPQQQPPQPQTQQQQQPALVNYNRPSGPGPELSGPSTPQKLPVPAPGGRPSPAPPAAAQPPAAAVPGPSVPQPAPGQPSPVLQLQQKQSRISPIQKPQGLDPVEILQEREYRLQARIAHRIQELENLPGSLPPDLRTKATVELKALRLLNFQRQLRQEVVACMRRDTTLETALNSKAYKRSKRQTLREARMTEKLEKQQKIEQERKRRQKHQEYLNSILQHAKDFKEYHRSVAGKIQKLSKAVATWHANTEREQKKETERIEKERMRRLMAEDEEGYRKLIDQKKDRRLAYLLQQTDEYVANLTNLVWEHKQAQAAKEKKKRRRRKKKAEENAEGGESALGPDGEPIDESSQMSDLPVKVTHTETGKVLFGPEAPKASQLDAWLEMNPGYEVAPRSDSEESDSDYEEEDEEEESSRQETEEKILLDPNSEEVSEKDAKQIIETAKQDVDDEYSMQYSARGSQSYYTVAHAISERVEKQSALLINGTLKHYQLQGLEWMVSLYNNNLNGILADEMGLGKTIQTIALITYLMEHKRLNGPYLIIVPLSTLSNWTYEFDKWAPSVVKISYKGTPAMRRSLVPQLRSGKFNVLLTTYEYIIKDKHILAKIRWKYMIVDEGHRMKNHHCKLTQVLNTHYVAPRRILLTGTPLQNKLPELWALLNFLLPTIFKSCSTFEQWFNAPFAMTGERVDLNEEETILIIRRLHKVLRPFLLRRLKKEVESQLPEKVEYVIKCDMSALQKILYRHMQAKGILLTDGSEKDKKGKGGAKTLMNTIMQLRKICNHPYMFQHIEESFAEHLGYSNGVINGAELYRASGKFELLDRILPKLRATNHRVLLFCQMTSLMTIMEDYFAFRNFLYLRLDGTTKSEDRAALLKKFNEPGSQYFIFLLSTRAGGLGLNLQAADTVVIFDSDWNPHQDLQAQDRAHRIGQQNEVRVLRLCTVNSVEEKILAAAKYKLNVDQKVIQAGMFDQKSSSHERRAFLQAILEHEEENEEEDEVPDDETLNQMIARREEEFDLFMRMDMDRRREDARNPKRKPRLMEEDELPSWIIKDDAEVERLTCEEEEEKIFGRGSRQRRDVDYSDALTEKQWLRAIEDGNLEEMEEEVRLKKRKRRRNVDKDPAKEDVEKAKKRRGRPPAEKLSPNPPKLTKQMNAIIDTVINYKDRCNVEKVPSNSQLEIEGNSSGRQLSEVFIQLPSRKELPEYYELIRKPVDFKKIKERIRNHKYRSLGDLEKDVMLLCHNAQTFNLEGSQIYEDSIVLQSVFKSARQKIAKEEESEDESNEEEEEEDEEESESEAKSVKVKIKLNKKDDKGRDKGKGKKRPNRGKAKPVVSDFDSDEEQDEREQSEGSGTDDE
T1 sequence (P51532 whole entry): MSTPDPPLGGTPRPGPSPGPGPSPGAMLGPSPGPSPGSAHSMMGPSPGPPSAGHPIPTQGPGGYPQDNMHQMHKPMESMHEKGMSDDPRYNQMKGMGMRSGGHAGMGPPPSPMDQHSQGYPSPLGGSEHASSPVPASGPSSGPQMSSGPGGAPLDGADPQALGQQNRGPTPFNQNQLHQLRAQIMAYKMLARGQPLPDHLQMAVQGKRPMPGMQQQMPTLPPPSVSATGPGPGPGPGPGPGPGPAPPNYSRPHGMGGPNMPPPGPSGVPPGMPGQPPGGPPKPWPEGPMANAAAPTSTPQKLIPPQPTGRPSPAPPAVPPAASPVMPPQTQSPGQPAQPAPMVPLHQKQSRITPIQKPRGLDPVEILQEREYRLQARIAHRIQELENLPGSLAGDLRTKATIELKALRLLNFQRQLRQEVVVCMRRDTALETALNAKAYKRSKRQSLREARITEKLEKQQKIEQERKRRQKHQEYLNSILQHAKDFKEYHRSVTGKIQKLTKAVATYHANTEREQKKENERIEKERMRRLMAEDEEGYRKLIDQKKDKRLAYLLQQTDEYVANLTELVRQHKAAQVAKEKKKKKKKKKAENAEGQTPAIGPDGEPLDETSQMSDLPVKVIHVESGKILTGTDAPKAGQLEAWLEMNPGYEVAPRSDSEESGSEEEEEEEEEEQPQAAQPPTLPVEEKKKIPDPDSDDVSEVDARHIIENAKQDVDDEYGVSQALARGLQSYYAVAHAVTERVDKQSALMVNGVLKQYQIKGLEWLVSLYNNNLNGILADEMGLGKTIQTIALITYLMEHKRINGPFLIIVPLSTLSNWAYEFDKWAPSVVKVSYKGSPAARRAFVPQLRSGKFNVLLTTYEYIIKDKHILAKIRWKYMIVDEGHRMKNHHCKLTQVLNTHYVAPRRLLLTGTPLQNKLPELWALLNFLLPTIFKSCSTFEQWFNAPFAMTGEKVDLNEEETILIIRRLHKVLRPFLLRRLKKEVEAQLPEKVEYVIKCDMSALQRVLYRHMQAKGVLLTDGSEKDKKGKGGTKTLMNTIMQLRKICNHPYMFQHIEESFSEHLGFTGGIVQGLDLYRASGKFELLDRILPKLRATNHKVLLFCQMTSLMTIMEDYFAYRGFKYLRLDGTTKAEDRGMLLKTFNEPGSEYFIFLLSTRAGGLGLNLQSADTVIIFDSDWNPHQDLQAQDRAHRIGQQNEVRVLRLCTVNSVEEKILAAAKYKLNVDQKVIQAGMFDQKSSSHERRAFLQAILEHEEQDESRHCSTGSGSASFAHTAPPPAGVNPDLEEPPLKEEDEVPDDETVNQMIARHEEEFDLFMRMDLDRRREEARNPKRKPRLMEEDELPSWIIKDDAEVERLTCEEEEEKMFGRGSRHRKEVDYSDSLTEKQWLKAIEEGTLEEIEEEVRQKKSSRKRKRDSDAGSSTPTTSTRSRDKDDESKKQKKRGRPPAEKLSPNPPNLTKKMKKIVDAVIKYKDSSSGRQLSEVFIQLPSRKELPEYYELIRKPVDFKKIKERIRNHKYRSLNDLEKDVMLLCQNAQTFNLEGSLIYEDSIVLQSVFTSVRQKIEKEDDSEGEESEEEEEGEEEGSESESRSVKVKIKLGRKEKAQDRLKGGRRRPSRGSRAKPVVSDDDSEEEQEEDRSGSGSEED

Structure (SMILES) | IC50 [1] [nM] | Ratio (BRG1 IC50 (μM) divided by BRM IC50 (μM)) [2] | IC50 [2] [nM]
[2H]C([2H])([2H])Oc1nc(C(F)F)ccc1-c1ccc2cnc(CNC(=O)c3cc(F)c4c(c3)S(=O)(=O)[C@@H](F)COC4)cc2n1 [Compound 103] | 43.4 | 12.05 | 3.6
COc1cnc2c(c1)CCCN2c1ccc2cnc(CNC(=O)c3cc(F)c4c(c3)S(=O)(=O)[C@@H](F)CCO4)cc2c1 [Compound 305] | 125 | 12.14 | 10.3
CCOc1ccc(-c2ccc3cnc(CNC(=O)c4cc(F)c5c(c4)S(=O)(=O)[C@@H](F)CCO5)cc3n2)nc1[C@H]1CC1(F)F [Compound 313] | 554 | 36.05 | 13
COc1nc(C(F)F)ccc1-c1ccc2cnc([C@H](C)NC(=O)c3ccc4c(c3)S(=O)(=O)[C@@H](F)CCOC4)cc2n1 [Compound 122] | 45.9 | 10.93 | 4.2
C[C@@H]1CN(c2cccc(-c3ccc4cnc(CNC(=O)c5cc(C(F)F)c6c(c5)S(=O)(=O)[C@@H](F)CCO6)cc4n3)n2)C[C@H](C)O1 [Compound 64] | 29.8 | 11.59 | 2.6
COc1ccc(-c2ccc3cnc(CNC(=O)c4cc(F)c5c(c4)S(=O)(=O)[C@@H](F)COC5)cc3n2)nc1[C@H]1CC1(F)F [Compound 280] | 106 | 11.58 | 9.2
COc1nc([C@@H](F)CF)ccc1-c1ccc2cnc(CNC(=O)c3cc(F)c4c(c3)S(=O)(=O)[C@@H](F)CCO4)cc2n1 [Compound 202] | 125 | 15.85 | 6.1
O=C(NCc1cc2nc(N3CCCc4ccc(C(F)F)nc43)ccc2cn1)c1cc(Cl)c2c(c1)S(=O)(=O)[C@@H](F)CCO2 [Compound 272] | 199 | 23.60 | 8.9
CC(F)(F)c1cnc2c(c1)OCCN2c1ccc2cnc(CNC(=O)c3cc(F)c4c(c3)S(=O)(=O)[C@@H](F)CCO4)cc2n1 [Compound 176] | 123 | 17.02 | 5.6
C[C@@H]1CCN1c1cnc2c(c1)OCCN2c1ccc2cnc(CNC(=O)c3cc(F)c4c(c3)S(=O)(=O)[C@@H](F)CCO4)cc2n1 [Compound 47] | 54.3 | 16.31 | 2.3
C[C@@H]1CN(c2cccc(-c3ccc4cnc(CNC(=O)c5cc(Cl)c6c(c5)S(=O)(=O)[C@@H](F)COC6)cc4n3)n2)C[C@H](C)O1 [Compound 79] | 34.4 | 12.12 | 3
O=C(NCc1cc2nc(N3CCCc4sc(C5CC5)nc43)ccc2cn1)c1cc(F)c2c(c1)S(=O)(=O)[C@@H](F)CCO2 [Compound 178] | 207 | 34.29 | 5.6
O=C(NCc1cc2nc(N3CCOc4cc(N5CC(F)C5)cnc43)ccc2cn1)c1cc(F)c2c(c1)S(=O)(=O)[C@@H](F)COC2 [Compound 30] | 39.1 | 19.40 | 1.8
O=C(NCc1cc2nc(N3CCOc4cc(N5CC[C@@H](F)C5)cnc43)ccc2cn1)c1cc(F)c2c(c1)S(=O)(=O)[C@@H](F)CCO2 [Compound 182] | 83.9 | 16.19 | 5.7
COc1nc([C@@H](C)F)ccc1-c1ccc2cnc(CNC(=O)c3cc(F)c4c(c3)S(=O)(=O)[C@@H](F)CCO4)cc2n1 [Compound 259] | 274 | 27.15 | 8.3
CO[C@@H]1C[C@H]1c1cnc2c(c1)OCCN2c1ccc2cnc(CNC(=O)c3cc(F)c4c(c3)S(=O)(=O)[C@@H](F)CCO4)cc2n1 [Compound 152] | 53 | 11.35 | 5
O=C(NCc1cc2cc(N3CCOc4cc(C5CC5)cnc43)ccc2cn1)c1cc(F)c2c(c1)S(=O)(=O)[C@@H](F)COC2 [Compound 9] | 30.2 | 23.22 | 1.3
C[C@@H]1CN(c2cccc(-c3ccc4cnc(CNC(=O)c5cc(Br)c6c(c5)S(=O)(=O)[C@@H](F)CCO6)cc4n3)n2)C[C@H](C)O1 [Compound 255] | 207 | 23.96 | 8.1
COc1nc([C@H](F)CF)ccc1-c1ccc2cnc(CNC(=O)c3cc(F)c4c(c3)S(=O)(=O)[C@@H](F)COC4)cc2n1 [Compound 44] | 64.1 | 23.96 | 2.1

More lines, in order of falling IC50 [1], values ahead:

IC50 [1] [nM] | Ratio (BRG1 IC50 (μM) divided by BRM IC50 (μM)) [2] | IC50 [2] [nM] | Structure (SMILES)
294 | 29.78 | 8.9 | COCCOc1cnc2c(c1)CCCN2c1ccc2cnc(CNC(=O)c3cc(F)c4c(c3)S(=O)(=O)[C@@H](F)CCO4)cc2n1 [Compound 271]
221 | 17.63 | 11.3 | C[C@H]1OC[C@H](F)S(=O)(=O)c2cc(C(=O)NCc3cc4nc(N5CCOc6cc(C7CC7)cnc65)ccc4cn3)ccc21 [Compound 162]
172 | 25.36 | 7.6 | Cc1cc(C(=O)NCc2cc3nc(N4CCOc5ccc(C(F)F)nc54)ccc3cn2)cc2c1COC[C@H](F)S2(=O)=O [Compound 237]
164 | 13.90 | 11.8 | O=C(NCc1cc2nc(N3CCOc4cc(N5CC[C@H]5CF)cnc43)ccc2cn1)c1cc(Br)c2c(c1)S(=O)(=O)[C@@H](F)CCO2 [Compound 323]
110 | 16.06 | 5.9 | COc1nc(C)ccc1-c1ccc2cnc(CNC(=O)c3cc(F)c4c(c3)S(=O)(=O)[C@@H](F)CCO4)cc2n1 [Compound 193]
106 | 14.90 | 7.1 | [2H]C([2H])([2H])Oc1nscc1-c1ccc2cnc(CNC(=O)c3cc(F)c4c(c3)S(=O)(=O)[C@@H](F)CCO4)cc2n1 [Compound 226]
90 | 19.61 | 9.1 | O=C(NCc1cc2nc(N3CCOc4ccc([C@H]5C[C@H]5F)nc43)ccc2cn1)c1cc(F)c2c(c1)S(=O)(=O)[C@@H](F)CCO2 [Compound 277]
89.1 | 19.04 | 4.7 | C[C@H]1[C@H](F)CN1c1cnc2c(c1)OCCN2c1ccc2cnc(CNC(=O)c3cc(F)c4c(c3)S(=O)(=O)[C@@H](F)CCO4)cc2n1 [Compound 142]
87.1 | 21.61 | 4 | O=C(NCc1cc2nc(-c3cccc(N4CCC4)n3)ccc2cn1)c1cc(F)c2c(c1)S(=O)(=O)[C@@H](F)CCO2 [Compound 117]
79.8 | 11.79 | 7 | C[C@@H]1CN(c2cccc(-c3ccc4cnc(CNC(=O)c5cc(F)c6c(c5)S(=O)(=O)[C@H](F)CO[C@@H]6C)cc4n3)n2)C[C@H](C)O1 [Compound 222]
76.3 | 16.19 | 4.7 | O=C(NCc1cc2cc(N3CCOc4cc(C5CC5)cnc43)ccc2cn1)c1cc(F)c2c(c1)S(=O)(=O)[C@@H](F)CCO2 [Compound 141]
72.3 | 10.03 | 7.2 | O=C(NCc1cc2nc(N3CCCc4cc(OC(F)F)cnc43)ccc2cn1)c1cc(F)c2c(c1)S(=O)(=O)[C@@H](F)CCO2 [Compound 229]
67 | 23.82 | 2.8 | O=C(NCc1cc2cc(-c3cncc(C4CC4)n3)ccc2cn1)c1cc(F)c2c(c1)S(=O)(=O)[C@@H](F)COC2 [Compound 77]
58.7 | 23.13 | 2.6 | O=C(NCc1cc2nc(N3CCOc4ccc(N5CC(F)C5)nc43)ccc2cn1)c1cc(F)c2c(c1)S(=O)(=O)[C@@H](F)COC2 [Compound 63]
46.2 | 21.94 | 2.6 | O=C(NCc1cc2nc(N3CCOc4c(N5CCC5)ccnc43)ccc2cn1)c1cc(F)c2c(c1)S(=O)(=O)[C@@H](F)CCO2 [Compound 65]
44.8 | 13.01 | 3.5 | Cc1cc(C(=O)NCc2cc3nc(-c4cccc(N5C[C@@H](C)O[C@@H](C)C5)n4)ccc3cn2)cc2c1OCC[C@H](F)S2(=O)=O [Compound 100]
35 | 22.36 | 1.8 | CCOc1nc(C(F)F)ccc1-c1ccc2cnc(CNC(=O)c3cc(F)c4c(c3)S(=O)(=O)[C@@H](F)COC4)cc2n1 [Compound 29]
20.7 | 13.20 | 1.6 | C[C@@H]1CN(c2cncc(-c3ccc4cnc(CNC(=O)c5cc(F)c6c(c5)S(=O)(=O)[C@@H](F)CCO6)cc4c3)n2)C[C@H](C)O1 [Compound 19, (4R)—N-[[6-[6-[(2S,6R)-2,6-dimethylmorpholin-4-yl]pyrazin-2-yl]-3-isoquinolyl]methyl]-4,9-difluoro-5,5-dioxo-3,4-dihydro-2H-1,5λ6-benzoxathiepine-7-carboxamide]
15.7 | 11.90 | 1.3 | COCc1cc2c(c(F)c1Cl)N(c1ccc3cnc(CNC(=O)c4cc(F)c5c(c4)S(=O)(=O)[C@@H](F)CCO5)cc3n1)CCO2 [Compound 10]
